assay type: physicochemical; conditions: HPLC on reversed phase columns, method [a]: pH 2.7, 0.1% formic acid in water / acetonitrile, linear gradient 10% to 95% acetonitrile

Row | Compound | log P
1 | C#Cc1cnc2ccc(C3=NOC(C)(C(=O)NCc4cn(C5CCC5)nc4C)C3)cc2c1 (centres unmarked) [compound 632] | 2.63[a]
2 | CC1CCCC1(C#N)NC(=O)C1(C)CC(c2ccc3ncc(Br)cc3c2)=NO1 (centres unmarked) [compound 313] | 3.27[a]
3 | CC(NC(=O)C1(C)CC(c2ccc3ncc(Br)cc3c2)=NO1)c1cccc2ccccc12 (centres unmarked) [compound 340] | 4.09[a]
4 | CC1(C(=O)NC(COc2ccc(F)cc2)C2CC2)CC(c2ccc3ncc(Br)cc3c2)=NO1 (centres unmarked) [compound 315] | 3.99[a]
5 | CCCSc1cnc2ccc(C3=NOC(C)(C(=O)NC(C)C)C3)cc2c1 (centres unmarked) [compound 254] | 3.26^[a]
6 | Cc1cc(C2=NOC(C)(C(=O)NC3CCC3)C2)cc2cc(Br)cnc12 (centres unmarked) [compound 579] | 3.71[a]
7 | COc1ccc(CNC(=O)C2(C)CC(c3ccc4ncc(Br)cc4c3)=NO2)nn1 (centres unmarked) [compound 675] | 2.28[a]
8 | CC(=O)C1(C(=O)NC2CCC2)CC(c2ccc3ncc(Br)cc3c2)=NO1 (centres unmarked) [compound 583] | 3.06[a]
9 | C#Cc1cnc2c(Cl)cc(C3=NOC(OC)(C(=O)NCc4cnc(C)cn4)C3)cc2c1 (centres unmarked) [compound 591] | 2.37[a]
10 | CCCSc1cnc2ccc(C3=NOC(C)(C(=O)NCc4cn(CC)nc4C)C3)cc2c1 (centres unmarked) [compound 264] | 2.76^[a]
11 | CCCCn1cc(CNC(=O)C2(C)CC(c3ccc4ncc(Br)cc4c3)=NO2)c(C)n1 (centres unmarked) [compound 657] | 2.96[a]
12 | CC(C)NC(=O)C1(C)ON=C(c2ccc3ncc(Br)cc3c2)C1C (centres unmarked) [compound 274] | 3.04[a]
13 | C#Cc1cnc2ccc(C3=NOC(C)(C(=O)NCc4cn(CC)nc4OC)C3)cc2c1 (centres unmarked) [compound 637] | 2.35[a]
14 | CCn1cc(CNC(=O)C2(C)CC(c3ccc4ncc(Br)cc4c3)=NO2)c(Br)n1 (centres unmarked) [compound 636] | 2.86[a]
15 | C#CCOc1coc(CNC(=O)C2(C)CC(c3ccc4ncc(Br)cc4c3)=NO2)cc1=O (centres unmarked) [compound 251] | 2.2^[a]
16 | C=C(C)C1(C(=O)NCc2cn(CC)nc2C)CC(c2ccc3ncc(Br)cc3c2)=NO1 (centres unmarked) [compound 526] | 2.91[a]
17 | C#Cc1cnc2ccc(C3=NOC(C)(C(=O)N(OC)C(C)CC)C3)cc2c1 (centres unmarked) [compound 658] | 3.50[a]
18 | CC1(C(=O)NC(C#N)c2ccccc2)CC(c2ccc3ncc(Br)cc3c2)=NO1 (centres unmarked) [compound 356] | 3.25[a]
19 | CCn1cc(CNC(=O)C2(OC)CC(c3cc(C)c4ncc(Br)cc4c3)=NO2)c(C)n1 (centres unmarked) [compound 600] | 2.96[a]
20 | CC1(C(=O)NC2COC2)CC(c2ccc3ncc(Br)cc3c2)=NO1 (centres unmarked) [compound 235] | 1.99^[a]
21 | C#Cc1cnc2ccc(C3=NOC(C(=O)NC(C)C)(C(F)F)C3)cc2c1 (centres unmarked) [compound 616] | 2.73[a]
22 | CC(=O)C1(C(=O)NC(C)C)CC(c2ccc3ncc(Br)cc3c2)=NO1 (centres unmarked) [compound 281] | 2.88[a]
23 | COC1(C(=O)NC2CCC2)CC(c2cc(C)c3ncc(Br)cc3c2)=NO1 (centres unmarked) [compound 603] | 3.58[a]
24 | C#Cc1cnc2ccc(C3=NOC(C)(C(=O)NCc4ccncc4OC)C3)cc2c1 (centres unmarked) [compound 676] | 1.40[a]
25 | CCCCCn1cc(CNC(=O)C2(C)CC(c3ccc4ncc(Br)cc4c3)=NO2)c(C)n1 (centres unmarked) [compound 655] | 3.31[a]
26 | C=C(C)C1(C(=O)NC2CCC2)CC(c2ccc3ncc(Br)cc3c2)=NO1 (centres unmarked) [compound 521] | 3.61[a]
27 | CC(C)NC(=O)C1(F)CC(c2ccc3ncc(Br)cc3c2)=NO1 (centres unmarked) [compound 280] | 2.69[a]
28 | C#Cc1cnc2ccc(C3=NOC(C)(C(=O)NCc4cn(C5CCCC5)nc4C)C3)cc2c1 (centres unmarked) [compound 629] | 2.71[a]

same assay, conditions: HPLC on reversed phase columns, method [a]: pH 2.7, 0.1% formic acid in water and acetonitrile, linear gradient 10% to 95% acetonitrile

Row | Compound | log P
29 | CC1(C(=O)NCc2ccncc2F)CC(c2ccc3ncc(Br)cc3c2)=NO1 (centres unmarked) [compound 811] | 2.27[a]
30 | Cc1cnccc1CNC(=O)C1(C)CC(c2ccc3ncc(Br)cc3c2)=NO1 (centres unmarked) [compound 695] | 1.46[a]
31 | C#Cc1cnc2ccc(C3=NOC(OC)(C(=O)NCc4cn(CC)nc4Cl)C3)cc2c1 (centres unmarked) [compound 705] | 2.51[a]
32 | CC1(C(=O)N(Cc2cc(F)cc3c2C(C)(C)CCC3)C2CC2)CC(c2ccc3ncc(Br)cc3c2)=NO1 (centres unmarked) [compound 815] | 6.11[a]
33 | C#Cc1cnc2ccc(C3=NOC(OC)(C(=O)NCc4cn(CC)nc4C(F)(F)F)C3)cc2c1 (racemic) [compound 820] | 2.80[a]
34 | CC1(C(=O)N/C(=N/O)C2CC2)CC(c2ccc3ncc(Br)cc3c2)=NO1 (centres unmarked) [compound 740] | 2.35[a]
35 | Cc1ccncc1CNC(=O)C1(C)CC(c2ccc3ncc(Br)cc3c2)=NO1 (centres unmarked) [compound 693] | 1.43[a]
36 | CC1(C(=O)NCc2ccnc(NC3CC3)c2)CC(c2ccc3ncc(Br)cc3c2)=NO1 (centres unmarked) [compound 761] | 1.58[a]
37 | C#CC1(C(=O)NCc2cn(CCC)nc2C)CC(c2ccc3ncc(Br)cc3c2)=NO1 (centres unmarked) [compound 700] | 2.78[a]
38 | C#Cc1cnc2ccc(C3=NOC(C)(C(=O)NCc4cncc(OC)n4)C3)cc2c1 (centres unmarked) [compound 791] | 2.25[a]
39 | C#Cc1cnc2ccc(C3=NOC(C)(C(=O)NCc4cncc(Cl)n4)C3)cc2c1 (centres unmarked) [compound 789] | 2.41[a]
40 | CC1(C(=O)NCc2cnccn2)CC(c2ccc3ncc(Br)cc3c2)=NO1 (centres unmarked) [compound 706] | 2.10[a]
41 | C#CC1(NC(=O)C2(C)CC(c3ccc4ncc(Br)cc4c3)=NO2)CC1 (centres unmarked) [compound 718] | 2.64[a]
42 | CC(C)NC(=O)C1(C)CC(c2ccc3ncc(Br)c(Cl)c3c2)=NO1 (centres unmarked) [compound 736] | 2.39[a]
43 | CC1(C(=O)NCc2cccnc2F)CC(c2ccc3ncc(Br)cc3c2)=NO1 (centres unmarked) [compound 786] | 2.51[a]
44 | CN(C)c1ncccc1CNC(=O)C1(C)CC(c2ccc3ncc(Br)cc3c2)=NO1 (centres unmarked) [compound 780] | 1.60[a]
45 | C#Cc1cnc2ccc(C3=NOC(C)(C(=O)NCc4cnc(OC)nc4)C3)cc2c1 (centres unmarked) [compound 689] | 2.01[a]
46 | C#CC(CC)(CC)NC(=O)C1(C)CC(c2ccc3ncc(Br)cc3c2)=NO1 (centres unmarked) [compound 717] | 3.96[a]
47 | C#Cc1cnc2ccc(C3=NOC(C)(C(=O)NCc4ccnc(N(C)C)c4)C3)cc2c1 (centres unmarked) [compound 800] | 1.36[a]
48 | C#Cc1cnc2ccc(C3=NOC(C)(C(=O)NCCc4ccc(C(F)(F)F)cc4Cl)C3)cc2c1 (centres unmarked) [compound 766] | 3.76[a]

same assay, conditions: method [a]: HPLC/LC-MS on reversed phase at pH 2.7, 0.1% formic acid in water / acetonitrile, gradient 10% to 95% acetonitrile

Row | Compound | log P
49 | C#Cc1cc2cc(C3=NOC(C)(C(=O)NC(C)C)C3)ccc2nc1C#N (centres unmarked) [compound 404] | 2.77[a]
50 | CC(ONC(=O)C1(C)CC(c2ccc3ncc(Br)cc3c2)=NO1)C1CC1 (racemic) [compound 375] | 2.73[a]
51 | CC1(C(=O)NC(CN2CCCC2)C2CC2)CC(c2ccc3ncc(Br)cc3c2)=NO1 (centres unmarked) [compound 364] | 1.53[a]
52 | C#Cc1cnc2ccc(C3=NOC(C)(C(=O)NC4=NCCO4)C3)cc2c1 (centres unmarked) [compound 460] | 1.52[a]
53 | CCC1(C(=O)NCC2COC(C)(C)O2)CC(c2ccc3ncc(Br)cc3c2)=NO1 (centres unmarked) [compound 499] | 2.99[a]
54 | CCn1cc(CNC(=O)C2(C[Si](C)(C)C)CC(c3ccc4ncc(Br)cc4c3)=NO2)c(C)n1 (centres unmarked) [compound 413] | 2.83[a]
55 | CCn1cc(CNC(=O)C2(C)ON=C(c3ccc4ncc(Br)cc4c3)C2C)c(C)n1 (racemic) [compound 385] | 2.55[a]
56 | CCn1cc(CNC(=O)C2(CC3CC3)CC(c3ccc4ncc(Br)cc4c3)=NO2)c(C)n1 (racemic) [compound 425] | 3.01[a]
57 | CCn1cc(CNC(=O)C2(C)CC(c3ccc4nc(Cl)c(I)cc4c3)=NO2)c(C)n1 (racemic) [compound 432] | 2.94[a]
58 | CC(C)NC(=O)C1(C)CC(c2ccc3ncc(NC(=O)OC(C)(C)C)cc3c2)=NO1 (racemic) [compound 430] | 2.77[a]

same assay, conditions: method [a]: HPLC/LC-MS on reversed phase at pH 2.7, 0.1% formic acid in water / acetonitrile, linear gradient 10% to 95% acetonitrile

Row | Compound | log P
59 | CC(C)C1(C(=O)NC2CC2)CC(c2ccc3ncc(Br)cc3c2)=NO1 (centres unmarked) [compound 65] | 3.11^[a]
60 | CC1(C(=O)NCc2ccnc(N3CCCC3)c2)CC(c2ccc3ncc(Br)cc3c2)=NO1 (centres unmarked) [compound 158] | 1.53^[a]
61 | C#Cc1cnc2ccc(C3=NOC(C)(C(=O)NCCc4ccc(Cl)cc4Cl)C3)cc2c1 (centres unmarked) [compound 212] | 3.7^[a]
62 | CC(C)NC(=O)C1(CCl)CC(c2ccc3ncc(Br)cc3c2)=NO1 (centres unmarked) [compound 139] | 3.01^[a]
63 | CC1(C(=O)NCc2ccc(OC(F)(F)F)cc2)CC(c2ccc3ncc(Br)cc3c2)=NO1 (centres unmarked) [compound 101] | 3.92^[a]
64 | CC1(C(=O)NCCc2ccc(Cl)cc2)CC(c2ccc3ncc(Br)cc3c2)=NO1 (centres unmarked) [compound 111] | 3.68^[a]
65 | CC1(C(=O)NCc2cccc(Cl)c2Cl)CC(c2ccc3ncc(Br)cc3c2)=NO1 (centres unmarked) [compound 174] | 4.01^[a]
66 | CC1(C(=O)NCC2CCOc3ccccc32)CC(c2ccc3ncc(Br)cc3c2)=NO1 (centres unmarked) [compound 112] | 3.48^[a]
67 | CCCCC1(C(=O)NC(C)C)CC(c2ccc3ncc(Br)cc3c2)=NO1 (centres unmarked) [compound 73] | 4.01^[a]
68 | C#Cc1cnc2ccc(C3=NOC(C)(C(=O)NCc4nncn4CC)C3)cc2c1 (centres unmarked) [compound 159] | 1.54^[a]

same assay, conditions: method [a]: HPLC/LC-MS on reversed phase at pH 2.7, 0.1% formic acid in water and acetonitrile, linear gradient 10% to 95% acetonitrile

Row | Compound | Log P
69 | CNC(=O)C1(C)CC(c2ccc3ncccc3c2)=NO1 (centres unmarked) [compound 2] | 1.3^[a]
70 | CCC(C)NC(=O)C1(C(F)(F)F)CC(c2cc3cc(Br)cnc3c(F)c2F)=NO1 (centres unmarked) [compound 15] | 4.04^[a]

same assay, conditions: reversed phase HPLC column; HPLC reversed phase, pH 2.7, 0.1% formic acid in water / acetonitrile, linear gradient 10% to 95% acetonitrile; calibration with alkan-2-ones; read-out: log P (HCOOH)

Row | Compound | chromatographic logP
71 | O=Cc1ccc2ncc(I)cc2c1 [3-iodoquinoline-6-carbaldehyde] | 2.12
72 | CC(C)NC(=O)C1(C)CC(c2ccc3ncc(-c4ccccc4)cc3c2)=NO1 (centres unmarked) [Compound No. 141] | 3.02
73 | O=Cc1ccc2ncc(Br)cc2c1 [3-bromoquinoline-6-carbaldehyde] | 2.08
74 | O=Cc1ccc2ncc(Cl)cc2c1 [3-chloroquinoline-6-carbaldehyde] | 1.96

Source: patent publication US9510598B2, “Nitrogen-containing heterocyclic compounds for plant disease control” (BAYER CROPSCIENCE AG, priority 2012, dated 2016)
